Common to all, as to type: biochemical, human/mammalian
Settings in all cases: compound at 10 μM, read-out: % of activity respect of the control

One assay has as its target MKK1 (Homo sapiens, UniProt Q02750). As to the kind of experiment: Kinase panel: MKK1. How it is done: (§1) The DDU kinase-focused compound set contains lead-like scaffolds that are designed to target protein kinases; they have kinase hinge binding motifs. Four of the 1H-imidazopyrazinones were screened against a human/mammalian kinase panel at the University of Dundee (http://www.kinase-screen.mrc.ac.uk) at a concentration of 10 μM. At the time of testing the panel contained 79 mammalian kinases selected to provide a broad coverage of the mammalian kinome (∼500 kinases in the human genome).[3] None of the compounds were active against any of the kinases at 10 μM.

For a further assay, the target named is PKBa (Homo sapiens, UniProt P31749). As to the kind of experiment: Kinase panel: PKBa. The procedure: as §1
Chain of PKBa (P31749 whole entry): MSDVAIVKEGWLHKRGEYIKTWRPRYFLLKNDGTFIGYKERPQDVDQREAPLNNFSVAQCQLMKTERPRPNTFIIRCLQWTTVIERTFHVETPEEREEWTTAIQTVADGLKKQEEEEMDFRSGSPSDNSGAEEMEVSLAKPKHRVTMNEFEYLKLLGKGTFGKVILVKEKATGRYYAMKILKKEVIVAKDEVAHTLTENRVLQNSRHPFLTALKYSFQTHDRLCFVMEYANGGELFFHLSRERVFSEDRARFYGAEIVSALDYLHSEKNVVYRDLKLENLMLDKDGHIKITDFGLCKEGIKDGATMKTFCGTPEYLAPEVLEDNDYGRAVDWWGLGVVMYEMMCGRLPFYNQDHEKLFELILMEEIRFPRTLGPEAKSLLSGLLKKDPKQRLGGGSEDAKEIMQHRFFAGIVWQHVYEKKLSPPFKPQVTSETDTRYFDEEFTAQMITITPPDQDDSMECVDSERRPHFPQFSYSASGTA
The target in the next assay is PKCa (Homo sapiens, UniProt P17252). Put plainly: Kinase panel: PKCa. The procedure:
as §1

A further assay concerns the target T1, PRAK (Homo sapiens, UniProt Q8IW41).
T1 sequence (Q8IW41 1-473): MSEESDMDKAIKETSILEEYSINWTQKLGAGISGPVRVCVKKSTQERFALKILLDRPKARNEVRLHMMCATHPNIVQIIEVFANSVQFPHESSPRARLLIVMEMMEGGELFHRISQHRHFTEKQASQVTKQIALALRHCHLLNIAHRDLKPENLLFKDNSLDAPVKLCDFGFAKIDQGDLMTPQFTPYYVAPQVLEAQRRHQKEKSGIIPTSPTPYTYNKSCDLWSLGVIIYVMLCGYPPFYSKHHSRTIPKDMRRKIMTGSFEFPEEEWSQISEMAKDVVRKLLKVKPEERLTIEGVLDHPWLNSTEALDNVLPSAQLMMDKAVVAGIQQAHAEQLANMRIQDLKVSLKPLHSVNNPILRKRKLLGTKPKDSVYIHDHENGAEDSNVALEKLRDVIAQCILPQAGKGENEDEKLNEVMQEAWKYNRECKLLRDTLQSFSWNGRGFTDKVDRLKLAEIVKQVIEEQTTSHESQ
Put plainly: Kinase panel: PRAK. The procedure:
as §1

A further assay deals with CAMKKb (Homo sapiens, UniProt Q96RR4). Put plainly: Kinase panel: CAMKKb. How it is done: as §1
Chain of CAMKKb (Q96RR4 whole entry): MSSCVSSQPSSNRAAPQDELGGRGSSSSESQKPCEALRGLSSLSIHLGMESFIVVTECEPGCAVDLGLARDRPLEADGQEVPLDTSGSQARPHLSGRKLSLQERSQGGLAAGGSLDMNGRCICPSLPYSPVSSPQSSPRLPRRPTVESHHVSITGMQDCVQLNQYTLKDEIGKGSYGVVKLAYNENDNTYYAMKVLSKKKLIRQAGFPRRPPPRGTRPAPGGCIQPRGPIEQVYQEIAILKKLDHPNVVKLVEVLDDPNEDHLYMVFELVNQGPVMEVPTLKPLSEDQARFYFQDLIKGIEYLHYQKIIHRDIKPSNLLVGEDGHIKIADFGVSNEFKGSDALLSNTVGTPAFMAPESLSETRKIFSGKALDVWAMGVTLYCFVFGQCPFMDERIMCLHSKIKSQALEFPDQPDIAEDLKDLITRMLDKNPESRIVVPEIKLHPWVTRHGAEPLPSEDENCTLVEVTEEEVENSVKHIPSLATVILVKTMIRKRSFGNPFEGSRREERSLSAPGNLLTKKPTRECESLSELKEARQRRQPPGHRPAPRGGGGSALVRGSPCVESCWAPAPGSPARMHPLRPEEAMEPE
In the next assay the target is SmMLCK (Homo sapiens, UniProt Q15746). Put plainly: Kinase panel: SmMLCK. How it is done:
as §1

For another assay, the target named is MELK (Homo sapiens, UniProt Q14680). As to the kind of experiment: Kinase panel: MELK. How it is done:
as §1

A further assay deals with SRPK1 (Homo sapiens, UniProt Q96SB4). Put plainly: Kinase panel: SRPK1. The procedure: as §1
Chain of SRPK1 (Q96SB4 whole entry): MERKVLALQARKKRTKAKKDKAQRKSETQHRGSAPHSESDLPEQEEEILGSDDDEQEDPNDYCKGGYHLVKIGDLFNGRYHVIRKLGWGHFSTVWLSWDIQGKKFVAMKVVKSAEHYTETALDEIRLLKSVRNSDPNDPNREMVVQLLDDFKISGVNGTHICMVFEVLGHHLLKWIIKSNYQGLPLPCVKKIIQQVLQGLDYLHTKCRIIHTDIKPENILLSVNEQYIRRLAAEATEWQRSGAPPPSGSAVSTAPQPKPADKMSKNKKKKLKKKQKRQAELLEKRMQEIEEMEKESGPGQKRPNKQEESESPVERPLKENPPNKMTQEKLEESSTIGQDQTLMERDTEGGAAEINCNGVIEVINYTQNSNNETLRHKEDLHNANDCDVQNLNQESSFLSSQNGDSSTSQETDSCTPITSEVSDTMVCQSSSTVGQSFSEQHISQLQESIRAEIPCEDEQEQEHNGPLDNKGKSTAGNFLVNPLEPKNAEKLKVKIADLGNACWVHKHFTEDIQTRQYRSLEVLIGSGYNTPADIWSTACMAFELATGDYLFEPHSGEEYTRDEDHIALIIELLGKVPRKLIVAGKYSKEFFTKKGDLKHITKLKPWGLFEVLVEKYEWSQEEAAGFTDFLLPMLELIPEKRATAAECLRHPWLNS
Another assay has as its target T2, TBK1 (Homo sapiens, UniProt Q9UHD2).
T2 sequence (Q9UHD2 1-729): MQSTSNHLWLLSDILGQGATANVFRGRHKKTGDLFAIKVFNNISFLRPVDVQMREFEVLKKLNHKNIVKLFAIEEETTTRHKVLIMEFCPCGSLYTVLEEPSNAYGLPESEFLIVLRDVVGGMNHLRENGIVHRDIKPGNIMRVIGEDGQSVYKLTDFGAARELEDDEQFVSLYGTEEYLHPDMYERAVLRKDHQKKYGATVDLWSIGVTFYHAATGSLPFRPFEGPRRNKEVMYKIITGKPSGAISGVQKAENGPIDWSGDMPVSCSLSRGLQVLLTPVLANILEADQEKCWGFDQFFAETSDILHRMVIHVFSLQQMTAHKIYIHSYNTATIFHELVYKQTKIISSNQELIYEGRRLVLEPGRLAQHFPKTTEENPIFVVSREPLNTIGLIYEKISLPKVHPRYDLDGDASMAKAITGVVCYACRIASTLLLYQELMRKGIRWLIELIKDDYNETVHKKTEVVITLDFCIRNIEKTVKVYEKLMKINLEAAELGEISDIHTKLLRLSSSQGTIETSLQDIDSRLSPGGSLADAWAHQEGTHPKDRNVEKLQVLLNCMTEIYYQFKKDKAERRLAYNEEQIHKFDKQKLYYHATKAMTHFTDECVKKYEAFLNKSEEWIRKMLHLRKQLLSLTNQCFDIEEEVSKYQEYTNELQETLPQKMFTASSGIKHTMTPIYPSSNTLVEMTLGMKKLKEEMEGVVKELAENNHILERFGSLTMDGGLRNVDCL
Put plainly: Kinase panel: TBK1. How it is done: as §1

The target in the next assay is T3, IKK epsilon (14231) (Homo sapiens, UniProt Q14164).
T3 sequence (Q14164 1-716): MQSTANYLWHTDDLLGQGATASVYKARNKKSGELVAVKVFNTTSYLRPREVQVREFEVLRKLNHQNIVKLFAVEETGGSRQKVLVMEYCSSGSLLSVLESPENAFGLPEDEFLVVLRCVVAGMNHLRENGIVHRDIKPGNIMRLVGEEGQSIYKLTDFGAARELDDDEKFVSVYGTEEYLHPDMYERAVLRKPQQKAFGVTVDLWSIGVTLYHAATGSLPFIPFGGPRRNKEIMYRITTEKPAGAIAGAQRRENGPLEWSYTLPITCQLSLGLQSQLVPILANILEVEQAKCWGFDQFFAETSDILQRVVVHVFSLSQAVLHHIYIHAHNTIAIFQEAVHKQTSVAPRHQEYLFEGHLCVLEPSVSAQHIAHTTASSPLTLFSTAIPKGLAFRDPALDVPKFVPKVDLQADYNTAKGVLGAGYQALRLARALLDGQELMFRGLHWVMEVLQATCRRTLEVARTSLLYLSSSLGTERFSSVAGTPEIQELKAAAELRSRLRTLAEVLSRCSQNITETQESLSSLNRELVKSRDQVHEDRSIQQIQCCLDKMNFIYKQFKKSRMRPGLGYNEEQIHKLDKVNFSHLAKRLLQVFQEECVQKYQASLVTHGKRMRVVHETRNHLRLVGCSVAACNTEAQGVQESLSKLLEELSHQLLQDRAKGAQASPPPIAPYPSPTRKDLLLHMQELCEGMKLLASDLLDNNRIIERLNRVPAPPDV
Put plainly: Kinase panel: IKK epsilon (14231). The procedure:
as §1

Structures are written as SMILES.

Chain of SmMLCK (Q15746 923-1914): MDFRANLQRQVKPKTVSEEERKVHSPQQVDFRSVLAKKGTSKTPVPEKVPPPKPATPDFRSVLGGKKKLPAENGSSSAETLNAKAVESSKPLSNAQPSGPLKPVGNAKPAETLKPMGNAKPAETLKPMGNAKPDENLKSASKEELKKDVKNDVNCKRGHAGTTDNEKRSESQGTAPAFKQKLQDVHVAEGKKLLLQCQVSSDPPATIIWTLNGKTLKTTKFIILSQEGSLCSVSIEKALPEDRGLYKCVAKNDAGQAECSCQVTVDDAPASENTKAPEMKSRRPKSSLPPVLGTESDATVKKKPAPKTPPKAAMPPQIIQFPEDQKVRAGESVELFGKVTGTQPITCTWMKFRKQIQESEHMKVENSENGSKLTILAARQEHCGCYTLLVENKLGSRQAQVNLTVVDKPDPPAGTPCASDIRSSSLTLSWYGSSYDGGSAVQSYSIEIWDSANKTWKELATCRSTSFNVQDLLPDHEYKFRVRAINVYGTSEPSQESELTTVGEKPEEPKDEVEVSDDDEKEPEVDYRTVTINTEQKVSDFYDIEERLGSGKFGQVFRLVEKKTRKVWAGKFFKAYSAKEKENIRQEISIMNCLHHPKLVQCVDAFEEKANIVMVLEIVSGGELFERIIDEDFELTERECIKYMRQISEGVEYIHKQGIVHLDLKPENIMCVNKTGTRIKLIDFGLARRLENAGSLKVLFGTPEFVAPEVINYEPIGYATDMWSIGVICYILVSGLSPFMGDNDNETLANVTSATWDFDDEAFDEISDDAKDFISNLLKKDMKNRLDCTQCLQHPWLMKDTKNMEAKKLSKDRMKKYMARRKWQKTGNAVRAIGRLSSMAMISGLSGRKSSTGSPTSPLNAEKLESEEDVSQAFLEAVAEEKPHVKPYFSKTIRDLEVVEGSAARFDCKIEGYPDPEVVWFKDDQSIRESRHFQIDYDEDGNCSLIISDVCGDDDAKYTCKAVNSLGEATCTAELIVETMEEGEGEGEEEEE
Chain of MKK1 (Q02750 whole entry): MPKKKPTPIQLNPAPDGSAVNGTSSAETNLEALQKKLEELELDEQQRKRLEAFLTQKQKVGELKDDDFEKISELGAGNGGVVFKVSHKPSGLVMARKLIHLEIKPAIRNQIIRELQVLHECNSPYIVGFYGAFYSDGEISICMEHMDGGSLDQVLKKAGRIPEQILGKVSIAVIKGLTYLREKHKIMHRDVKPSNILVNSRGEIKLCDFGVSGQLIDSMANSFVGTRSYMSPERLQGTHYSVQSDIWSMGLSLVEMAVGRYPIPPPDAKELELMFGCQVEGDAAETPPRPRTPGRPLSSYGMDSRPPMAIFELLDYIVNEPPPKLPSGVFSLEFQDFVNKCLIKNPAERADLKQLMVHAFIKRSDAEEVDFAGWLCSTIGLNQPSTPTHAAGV
Chain of MELK (Q14680 whole entry): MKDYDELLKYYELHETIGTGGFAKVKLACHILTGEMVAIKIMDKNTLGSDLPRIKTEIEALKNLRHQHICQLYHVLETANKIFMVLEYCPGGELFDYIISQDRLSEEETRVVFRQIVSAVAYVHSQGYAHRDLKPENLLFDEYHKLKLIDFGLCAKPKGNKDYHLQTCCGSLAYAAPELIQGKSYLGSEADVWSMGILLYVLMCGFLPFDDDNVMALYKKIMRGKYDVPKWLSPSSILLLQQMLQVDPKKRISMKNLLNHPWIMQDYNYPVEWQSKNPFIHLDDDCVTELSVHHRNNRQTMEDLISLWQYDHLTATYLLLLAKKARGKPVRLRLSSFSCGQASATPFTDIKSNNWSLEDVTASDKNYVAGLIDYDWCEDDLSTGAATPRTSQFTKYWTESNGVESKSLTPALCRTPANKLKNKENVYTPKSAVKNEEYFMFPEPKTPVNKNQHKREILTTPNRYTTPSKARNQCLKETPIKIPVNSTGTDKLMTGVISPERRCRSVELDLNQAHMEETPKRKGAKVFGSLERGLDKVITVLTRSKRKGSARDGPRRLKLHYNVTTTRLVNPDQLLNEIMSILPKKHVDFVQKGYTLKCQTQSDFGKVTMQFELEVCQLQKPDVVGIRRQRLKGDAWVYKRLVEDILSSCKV

Take `CC(c1ccccc1)n1c(=O)[nH]c2ncc(-c3ccc(F)cc3)nc21` (stereo not shown) [Compound 1]: the remaining activity at 10 µM was 106% on MKK1; 99% at PKBa; 101% at PKCa; 103% at PRAK; 101% on CAMKKb; 80% on SmMLCK. For the same molecule, the remaining activity at 10 µM on MELK was found to be 118%; at SRPK1, 80%; on TBK1, 95%; on IKK epsilon (14231), 124%.

For the molecule `O=c1[nH]c2ncc(-c3ccc(F)cc3)nc2n1CC1CC1` [Compound 10], the remaining activity at 10 µM at MKK1 stood at 97%; on PKBa it was 96%; at PKCa, 106%; at PRAK, 99%; at CAMKKb, 98%; on SmMLCK it was 74%. Also, the remaining activity at 10 µM on MELK is 125%; on SRPK1, 89%; on TBK1, 95%; on IKK epsilon (14231) it was 103%.

As for `O=c1[nH]c2ncc(-c3ccc(F)cc3)nc2n1C1CCCCC1` [Compound 12, 1-Cyclohexyl-6-(4-fluorophenyl)-1H-imidazo[4,5-b]pyrazin-2(3H)-one], the remaining activity at 10 µM is 62% on MKK1; 102% on PKBa; 94% at PKCa; 99% on PRAK; 104% at CAMKKb; 89% on SmMLCK. Also, the remaining activity at 10 µM at MELK was 110%; on SRPK1, 88%; at TBK1 it was 92%; on IKK epsilon (14231), 98%.

Consider `C[C@H](c1ccccc1)n1c(=O)[nH]c2ncc(-c3ccccc3)nc21` [Compound 14, (R)-6-Phenyl-1-(1-phenylethyl)-1H-imidazo[4,5-b]pyrazin-2(3H)-one], for which the remaining activity at 10 µM worked out at 87% at MKK1; 89% at PKBa; 98% on PKCa; 98% on PRAK; 86% at CAMKKb; 64% on SmMLCK. Moreover, the remaining activity at 10 µM on MELK was found to be 100%; on SRPK1, 75%; on TBK1, 100%; on IKK epsilon (14231), 87%.

The record behind these values is paper PMC4648050, “Discovery of Inhibitors of Trypanosoma brucei by Phenotypic Screening of a Focused Protein Kinase Library” (Chemmedchem, 2015).
